From patent US10227347B2, “Purinyl-N-hydroxyl pyrimidine formamide derivative, preparation methods and uses thereof” (Guizhou Bailing Group Pharmaceutical CO., LTD., priority 2015, dated 2019)
Read-outs that look alike come from different tables or passages of the source.

Assays:
HDAC1 = molecular target: T1, HDAC1 (Homo sapiens, UniProt Q13547); experiment: In vitro HDAC1 enzymatic activity inhibition (Lys-Ac-AMC substrate); format: biochemical
T1 construct: purchased BPS Bioscience
Protocol: Determining the inhibition capability to HDAC activity through the substrate method of fluorophore 4-amino-7-coumarin coupled Ac-peptide (Lys-Ac-AMC). HDAC1 protein is purchased from BPS Bioscience Company; the reaction buffer system is a modified tris(hydroxymethyl)aminomethane (TRIS) buffer (pH7.0). All small molecule compounds are prepared and dissolved by 100% DMSO (dimethyl sulfoxide). HDAC is prepared into the buffer as per certain concentration to be served as the enzyme solution; trypsin and the fluorophore 4-amino-7-coumarin coupled Ac-peptide substrate are prepared into the buffer as per certain concentration to be served as the substrate solution. Adding the compound into the reaction wells of the 384 well plate at the designed concentration, then adding 15 μL HDAC solution into the reaction wells (adding 15 μL blank buffer into the control well 0) for incubation under ambient temperature for 15 min; then adding 10 μL substrate solution to start reaction; during the reaction, the final concentration of HDAC1 protein is 6 nM, trypsin 0.05 μM and Ac-peptide 8 μM.
(§1) Calculating the value of IC50 as per the formula: Y=background data+(top data−background data)/(1+10^((Log IC50−X)*rate of curve))
Where, Y refers to the inhibition ratio (%) and X refers to the compound concentration. […]
Analyzing the result data with the software GraphPad Prism and calculating the value of IC50 as per the formula: Y=background data+(top data−background data)/(1+10^((Log IC50−X)*rate of curve)). Where, Y refers to the inhibition ratio (%) and X refers to the compound concentration.

PI3Kα = molecular target: T2, PI3Kα (Homo sapiens, UniProt P42336); experiment: PI3Kα activity inhibition (Kinase-Glo); format: biochemical; settings: Table 1, graded; read-out: PI3Kα IC50
T2 construct: purchased Invitrogen PV4788
Protocol: Detecting the inhibition capability of the compound to PI3Kα and PI3Kδ activities with Kinase-Glo (purchased from Promege Company; Catalog No.: V3771). […] The reaction system also comprises substrates as PIP2 (4, 5-diphosphoinositide, purchased from Life Technologies Company) and ATP (triphosadenine, purchased from Sigma Company). The reaction buffer system comprises 50 mM HEPES (4-hydroxyethylpiperazine ethane sulfonic acid), 3 mM MgCl2, 1 mM EGTA (ethylene glycol bis(2-amino ethylether)quadrol), 100 mM NaCl, 0.03% CHAPS (3-[3-(cholamidopropyl)dimethylamino]-1-propanesulfonic acid), 2 mM DTT (dithiothreitol). The pH value of the reaction buffer is 7.5. […] Mixing the system evenly for incubation under ambient temperature (for 1 h in PI3Kα test and for 2 h in PI3Kδ test). After incubation, adding 10 μL Kinase-Glo which has been preheated to ambient temperature into each reaction well to terminate the reaction; shaking it in dark place for 15 min after it is mixed evenly, then measuring the fluorescence intensity with a microplate reader and analyzing the result data with the software GraphPad Prism.
as §1
Where, Y refers to the inhibition ratio (%) and X refers to the compound concentration.

[1] = Table 1, graded, read-out: HDAC1 IC50
[2] = read-out: inhibition value IC50 to the activity of HDAC1

T1 sequence (Q13547 whole entry, species assumed): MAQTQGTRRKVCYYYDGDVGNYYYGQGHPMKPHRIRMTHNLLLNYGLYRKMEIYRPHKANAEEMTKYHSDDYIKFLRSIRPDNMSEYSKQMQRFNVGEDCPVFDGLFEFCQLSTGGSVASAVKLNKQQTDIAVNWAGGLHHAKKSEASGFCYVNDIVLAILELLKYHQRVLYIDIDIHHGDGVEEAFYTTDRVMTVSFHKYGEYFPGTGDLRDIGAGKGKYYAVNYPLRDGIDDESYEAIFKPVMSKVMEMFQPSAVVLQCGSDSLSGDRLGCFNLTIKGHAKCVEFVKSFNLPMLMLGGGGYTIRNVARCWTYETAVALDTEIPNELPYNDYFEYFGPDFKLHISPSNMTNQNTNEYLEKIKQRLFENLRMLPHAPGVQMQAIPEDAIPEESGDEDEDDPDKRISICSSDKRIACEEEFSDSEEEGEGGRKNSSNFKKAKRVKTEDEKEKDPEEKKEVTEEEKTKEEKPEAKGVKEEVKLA
T2 sequence (P42336 whole entry, species assumed): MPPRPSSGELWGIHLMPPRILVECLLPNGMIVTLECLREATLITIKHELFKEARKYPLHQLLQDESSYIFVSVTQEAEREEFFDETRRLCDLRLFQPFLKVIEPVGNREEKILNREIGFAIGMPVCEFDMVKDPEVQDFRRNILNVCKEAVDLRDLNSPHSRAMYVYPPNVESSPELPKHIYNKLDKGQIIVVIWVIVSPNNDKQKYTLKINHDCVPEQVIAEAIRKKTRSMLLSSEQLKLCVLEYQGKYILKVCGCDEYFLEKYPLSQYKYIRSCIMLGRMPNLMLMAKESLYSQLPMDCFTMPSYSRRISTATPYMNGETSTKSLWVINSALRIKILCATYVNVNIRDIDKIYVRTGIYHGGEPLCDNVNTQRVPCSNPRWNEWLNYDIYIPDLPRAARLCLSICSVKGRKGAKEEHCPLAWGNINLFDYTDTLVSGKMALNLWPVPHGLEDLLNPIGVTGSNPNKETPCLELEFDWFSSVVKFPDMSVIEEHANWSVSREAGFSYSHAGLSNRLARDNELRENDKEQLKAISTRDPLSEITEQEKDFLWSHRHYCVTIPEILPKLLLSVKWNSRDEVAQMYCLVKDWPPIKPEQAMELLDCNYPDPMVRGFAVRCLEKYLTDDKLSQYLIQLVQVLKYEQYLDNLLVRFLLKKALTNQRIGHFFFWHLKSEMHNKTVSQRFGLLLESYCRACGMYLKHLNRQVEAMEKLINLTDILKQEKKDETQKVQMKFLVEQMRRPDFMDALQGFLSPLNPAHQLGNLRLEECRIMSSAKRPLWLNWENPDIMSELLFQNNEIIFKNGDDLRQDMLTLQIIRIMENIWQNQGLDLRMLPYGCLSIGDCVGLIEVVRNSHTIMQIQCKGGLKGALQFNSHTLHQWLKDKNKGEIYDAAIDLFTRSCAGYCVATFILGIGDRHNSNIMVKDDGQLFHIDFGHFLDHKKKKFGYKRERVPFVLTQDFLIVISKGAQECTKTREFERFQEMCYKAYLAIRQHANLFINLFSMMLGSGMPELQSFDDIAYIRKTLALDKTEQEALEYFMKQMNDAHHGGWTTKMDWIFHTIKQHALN
T2 sequence (P27986 whole entry partner, species assumed): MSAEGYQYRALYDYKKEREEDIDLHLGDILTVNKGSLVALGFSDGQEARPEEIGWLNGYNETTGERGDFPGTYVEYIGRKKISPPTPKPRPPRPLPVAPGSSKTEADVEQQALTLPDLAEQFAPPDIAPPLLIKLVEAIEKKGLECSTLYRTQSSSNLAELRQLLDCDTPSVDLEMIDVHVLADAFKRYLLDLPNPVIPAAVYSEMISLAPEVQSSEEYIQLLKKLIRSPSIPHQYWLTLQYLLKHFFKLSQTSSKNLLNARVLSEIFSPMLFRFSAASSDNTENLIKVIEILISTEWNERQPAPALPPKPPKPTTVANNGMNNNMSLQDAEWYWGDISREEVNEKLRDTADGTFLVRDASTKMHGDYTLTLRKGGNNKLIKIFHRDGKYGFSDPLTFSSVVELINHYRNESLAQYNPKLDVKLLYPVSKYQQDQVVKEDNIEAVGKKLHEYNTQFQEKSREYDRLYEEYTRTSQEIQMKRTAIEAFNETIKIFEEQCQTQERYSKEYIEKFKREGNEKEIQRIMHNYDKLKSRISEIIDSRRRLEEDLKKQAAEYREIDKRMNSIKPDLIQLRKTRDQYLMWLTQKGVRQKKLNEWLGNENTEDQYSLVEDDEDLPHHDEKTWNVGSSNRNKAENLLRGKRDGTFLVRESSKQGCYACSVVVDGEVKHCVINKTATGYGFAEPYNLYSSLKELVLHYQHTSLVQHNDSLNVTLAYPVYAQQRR

Compound | IC50 (HDAC1; [1]) | IC50 (PI3Kα) | IC50 (HDAC1; [2]) | IC50 (HDAC1)
2-(((2-(2-(3-(1-hydroxyethyl)2-phenyl)-9-methyl-6-morpholine-9H-purine-8-yl))methyl(methyl)amino)-N-hydroxyl pyrimidine-5-formamide [CLJ-39] | < 100 nM | > 10000 nM |  | 
CCCCn1c(CN(C)c2ncc(C(=O)NO)cn2)nc2c(N3CCOCC3)nc(-c3ccc(OC)cc3)nc21 [CLJ-33, N-hydroxy-2-(((2-(4-methoxyphenyl)-6-morpholino-9-butyl-9H-purine-8-yl)methyl)(methyl)amino)pyrimidine-5-formamide] | 100 to 1000 nM | > 10000 nM |  | 
COc1ccc(-c2nc(N3CCOCC3)c3nc(CNc4ncc(C(=O)NO)cn4)n(C)c3n2)cc1 [CLJ-34, N-hydroxy-2-(((2-(4-methoxyphenyl)-9-methyl-6-morpholine-9H-purine-8-yl)methyl)amino)pyrimidine-5-formamide] | < 100 nM | > 10000 nM |  | 
CN(Cc1nc2c(N3CCOCC3)nc(-c3cccc(OCCO)c3)nc2n1C)c1ncc(C(=O)NO)cn1 [CLJ-41, 2-(((2-(3-(2-hydroxylethyoxyl)phenyl)-9-methyl-6-morpholine-9H-purine-8-yl))methyl(methyl)amino)-N-hydroxyl pyrimidine-5-formamide] | 100 to 1000 nM | 100 to 1000 nM |  | 
CC(C)COc1ccc(-c2nc(N3CCOCC3)c3nc(CN(C)c4ncc(C(=O)NO)cn4)n(C)c3n2)cc1 [CLJ-43, 2-(((2-(4-isobutoxyphenyl)-9-methyl-6-morpholine-9H-purine-8-yl))methyl(methyl)amino)-N-hydroxyl pyrimidine-5-formamide] | < 100 nM | > 10000 nM |  | 
CN(C)c1ccc(-c2nc(N3CCOCC3)c3nc(CN(C)c4ncc(C(=O)NO)cn4)n(C)c3n2)cc1 [CLJ-46] | < 1 nM | > 10000 nM | < 1 nM | 
CN(Cc1nc2c(N3CCOCC3)nc(-c3cccc(NS(=O)(=O)CCCl)c3)nc2n1C)c1ncc(C(=O)NO)cn1 [CLJ-50, 2-(((2-(3-(2-chloroethylsulfonamide)phenyl)-9-methyl-6-morpholine-9H-purine-8-yl))methyl(methyl)amino)-N-hydroxyl pyrimidine-5-formamide] |  | > 10000 nM |  | < 100 nM
CN(Cc1nc2c(N3CCOCC3)nc(-c3ccc(NC(=O)OC(C)(C)C)cc3)nc2n1C)c1ncc(C(=O)NO)cn1 [CLJ-52] | < 100 nM | > 10000 nM |  | 
CN(Cc1nc2c(N3CCOCC3)nc(-c3ccccc3NS(C)(=O)=O)nc2n1C)c1ncc(C(=O)NO)cn1 [CLJ-53] | < 100 nM | > 10000 nM |  | 
CN(Cc1nc2c(N3CCOCC3)nc(-c3ccc(S(=O)(=O)NCCCCl)cc3)nc2n1C)c1ncc(C(=O)NO)cn1 [CLJ-58, 2-(((2-(4-(N-(3-chloropropyl)sulfonamide)phenyl)-9-methyl-6-morpholine-9H-purine-8-yl))methyl(methyl)amino)-N-hydroxyl pyrimidine-5-formamide] | < 100 nM | > 10000 nM |  | 
CN(Cc1nc2c(N3CCOCC3)nc(-c3cccc(S(=O)(=O)NCO)c3)nc2n1C)c1ncc(C(=O)NO)cn1 [CLJ-59, 2-(((2-(3-(N-(hydroxymethyl)sulfonamide)phenyl)-9-methyl-6-morpholine-9H-purine-8-yl))methyl(methyl)amino)-N-hydroxyl pyrimidine-5-formamide] | < 100 nM | > 10000 nM |  | 
CN(Cc1nc2c(N3CCOCC3)nc(-c3ccc(CN4CCOCC4)cc3)nc2n1C)c1ncc(C(=O)NO)cn1 [CLJ-67] | < 1 nM | > 10000 nM | < 1 nM | 

Continued, in another order:

IC50 (HDAC1; [1]) | IC50 (PI3Kα) | IC50 (HDAC1; [2]) | Compound | IC50 (HDAC1)
< 100 nM | > 10000 nM |  | 2-(((2-(4-((2-hydroxycaproyl)sulfydryl)phenyl)-9-methyl-6-morpholine-9H-purine-8-yl))methyl(methyl)amino)-N-hydroxyl pyrimidine-5-formamide [CLJ-42] | 
< 1 nM | > 10000 nM | < 1 nM | CN(Cc1nc2c(N3CCOCC3)nc(-c3ccco3)nc2n1C)c1ncc(C(=O)NO)cn1 [CLJ-26, 2-(((2-(2-furyl)-9-methyl-6-morpholine-9H-purine-8-yl))methyl(methyl)amino)-N-hydroxyl pyrimidine-5-formamide] | 
100 to 1000 nM | > 10000 nM |  | CN(Cc1nc2c(N3CCOCC3)nc(-c3ccc(O)cc3)nc2n1C)c1ncc(C(=O)NO)cn1 [CLJ-28, 2-(((2-(4-hydroxyphenyl)-9-methyl-6-morpholine-9H-purine-8-yl))methyl(methyl)amino)-N-hydroxyl pyrimidine-5-formamide] | 
< 1 nM | > 10000 nM | < 1 nM | CN(Cc1nc2c(N3CCOCC3)nc(-c3ccc4c(c3)OCCO4)nc2n1C)c1ncc(C(=O)NO)cn1 [CLJ-37, 2-(((2-(benzo[d][1.4]dioxyheterocyclic hexylene-6-yl)-9-methyl-6-morpholine-9H-purine-8-yl))methyl(methyl)amino)-N-hydroxyl pyrimidine-5-formamide] | 
< 100 nM | > 10000 nM |  | CN(Cc1nc2c(N3CCOCC3)nc(-c3cccc(CO)c3)nc2n1C)c1ncc(C(=O)NO)cn1 [CLJ-40, 2-(((2-(3-(hydroxymethyl)phenyl)-9-methyl-6-morpholine-9H-purine-8-yl))methyl(methyl)amino)-N-hydroxyl pyrimidine-5-formamide] | 
1000 to 10000 nM | > 10000 nM |  | CCCn1c(CN(C)c2ncc(C(=O)NO)cn2)nc2c(N3CCOCC3)nc(-c3ccc(N)cc3)nc21 [CLJ-45, N-hydroxy-2-(((2-(4-aminophenyl)-6-morpholino-9-propyl-9H-purine-8-yl)methyl)(methyl)amino)pyrimidine-5-formamide] | 
1000 to 10000 nM | > 10000 nM |  | CCCCN(Cc1nc2c(N3CCOCC3)nc(-c3ccc(NC)cc3)nc2n1C)c1ncc(C(=O)NO)cn1 [CLJ-47, N-hydroxy-2-(((2-(4-methylaminophenyl)-9-methyl-6-morpholine-9H-purine-8-yl)methyl)(butyl)amino)pyrimidine-5-formamide] | 
< 100 nM | > 10000 nM |  | CN(Cc1nc2c(N3CCOCC3)nc(-c3ccc(NS(=O)(=O)CCCCl)cc3)nc2n1C)c1ncc(C(=O)NO)cn1 [CLJ-51] | 
< 100 nM | > 10000 nM |  | CCc1ccc(-c2nc(N3CCOCC3)c3nc(CN(C)c4ncc(C(=O)NO)cn4)n(C)c3n2)cc1 [CLJ-61, 2-(((2-(4-ethylphenyl)-9-methyl-6-morpholine-9H-purine-8-yl))methyl(methyl)amino)-N-hydroxyl pyrimidine-5-formamide] | 
< 100 nM | > 10000 nM |  | CCCc1ccc(-c2nc(N3CCOCC3)c3nc(CN(C)c4ncc(C(=O)NO)cn4)n(C)c3n2)cc1 [CLJ-62, 2-(((2-(4-propylphenyl)-9-methyl-6-morpholine-9H-purine-8-yl))methyl(methyl)amino)-N-hydroxyl pyrimidine-5-formamide] | 
< 100 nM | > 10000 nM |  | CN(Cc1nc2c(N3CCOCC3)nc(-c3ccc(C(C)(C)C)cc3)nc2n1C)c1ncc(C(=O)NO)cn1 [CLJ-63] | 
< 100 nM | > 10000 nM |  | CN(Cc1nc2c(N3CCOCC3)nc(-c3cccc(C(N)=O)c3)nc2n1C)c1ncc(C(=O)NO)cn1 [CLJ-64, 2-(((2-(3-carbamoylphenyl)-9-methyl-6-morpholine-9H-purine-8-yl))methyl(methyl)amino)-N-hydroxyl pyrimidine-5-formamide] | 
< 100 nM | > 10000 nM |  | CN(Cc1nc2c(N3CCOCC3)nc(-c3cccc(C(=O)NCCO)c3)nc2n1C)c1ncc(C(=O)NO)cn1 [CLJ-65, 2-(((2-(3-(N-(hydroxyethyl)acylamino)phenyl)-9-methyl-6-morpholine-9H-purine-8-yl))methyl(methyl)amino)-N-hydroxyl pyrimidine-5-formamide] | 
< 100 nM | > 10000 nM |  | CN(Cc1nc2c(N3CCOCC3)nc(-c3cccc(C(=O)N4CCN(CO)CC4)c3)nc2n1C)c1ncc(C(=O)NO)cn1 [CLJ-66, 2-(((2-(3-(4-(hydroxymethyl)piperazine-1-carbonyl)phenyl)-9-methyl-6-morpholine-9H-purine-8-yl))methyl(methyl)amino)-N-hydroxyl pyrimidine-5-formamide] | 
